Laboratory results reported in patent US20230097700A1, “AZETIDINE SULFONAMIDE COMPOUND” (DAIICHI SANKYO COMPANY, LIMITED, priority 2019, published 2023).
Counter-ions that a name gives are not always drawn.

Test system: activated T cells (CD4+ T cells derived from the mouse spleen)
Assay: Incorporation of 3H-thymidine into activated T cells
Type: cell-based, mouse (C57BL/6J)
Conditions: 3H-thymidine incorporation, mouse spleen CD4+ T cells activated with Dynabeads Mouse T-Activator CD3/CD28
Method: Effect of a test substance on incorporation of ^3H-thymidine was evaluated using T cells derived from the mouse spleen. The spleen was excised out from a C57BL/6J mouse euthanized, cut into pieces, ground on a cell strainer (40 μm mesh) and centrifuged to collect spleen cells. CD4+ T cells were isolated from the spleen cells by use of EasySep Mouse CD4+ T cell isolation kit (STEMCELL Technologies). CD4+ T cells were seeded to a 96-well round-bottom plate. Test substance dissolved in DMSO (dimethyl sulfoxide) or vehicle (DMSO) was added to culture medium and Dynabeads Mouse T-Activator CD3/CD28 (Thermo Fisher Scientific Inc.) was added. Culture was carried out at 37° C. in 5% CO2. After culture was carried out for 24 hours, ^3H-thymidine (PerkinElmer) diluted with the culture medium was added to individual wells. Culture was further carried out overnight at 37° C. in 5% CO2. In order to measure ^3H-thymidine incorporated in nuclei of the cells, the cells were collected on a filter plate UniFilter-96 GF/B (PerkinElmer) by use of a FilterMate Universal Harvester (PerkinElmer). After the filter plate was placed in a dryer and allowed to stand still for 2 hours or more, scintillation cocktail MicroScint-O (PerkinElmer) was added and radioactivity was measured by TopCount NXT (PerkinElmer). With the radioactivity of a group not containing a test substance being specified as 100% and the radioactivity of a group not activated being specified as 0%, relative radioactivity values of individual wells to which the test substance was added (proliferation rate, % of vehicle) were calculated. The values of “% of vehicle” were entered in analysis software Prism (Version 4.03, GraphPad Software). “Nonlinear regression Log (inhibitor) vs reaction variable tilt” was selected and sigmoid type-fitting (Bottom=0, Top=100) was carried out to calculate 50% inhibition concentration (IC50). The compound of the present invention suppresses ^3H-thymidine incorporation in activated T cells.

| IC50 [nM] | Compound |
| --- | --- |
| 24 | N[C@@H](Cc1cccc(S(=O)(=O)N2CC(Oc3ccc(F)cc3)(c3ccc(F)c(F)c3)C2)c1)C(=O)O [Example 37, (2S)-2-Amino-3-{3-[3-(3,4-difluorophenyl)-3-(4-fluorophenoxy)azetidin-1-sulfonyl]phenyl}propanoic acid monohydrochloride] |
| 17 | N#Cc1ccc(OC2(c3ccc(F)c(F)c3)CN(S(=O)(=O)c3cccc(C[C@H](N)C(=O)O)c3)C2)cc1 [Example 38, (2S)-2-Amino-3-{3-[3-(4-cyanophenoxy)-3-(3,4-difluorophenyl)azetidin-1-sulfonyl]phenyl}propanoic acid monohydrochloride] |
| 14 | NC(=O)c1ccc(OC2(c3ccc(F)c(F)c3)CN(S(=O)(=O)c3cccc(C[C@H](N)C(=O)O)c3)C2)cc1 [Example 39, (2S)-2-Amino-3-{3-[3-(4-carbamoylphenoxy)-3-(3,4-difluorophenyl)azetidin-1-sulfonyl]phenyl}propanoic acid monohydrochloride] |
| 18 | Cc1cccc(OC2(c3ccccc3)CN(S(=O)(=O)c3cccc(C[C@H](N)C(=O)O)c3)C2)c1 [Example 43, (2S)-2-Amino-3-(3-{[3-(3-methylphenoxy)-3-phenylazetidin-1-yl]sulfonyl}phenyl)propanoic acid monohydrochloride] |
| 23 | Cc1ccc(OC2(c3ccccc3)CN(S(=O)(=O)c3cccc(C[C@H](N)C(=O)O)c3)C2)cc1F [Example 45, (2S)-2-Amino-3-(3-{[3-(3-fluoro-4-methylphenoxy)-3-phenylazetidin-1-yl]sulfonyl}phenyl)propanoic acid monoformate] |
| 31 | Cc1ccc(OC2(c3ccc(F)cc3)CN(S(=O)(=O)c3cccc(C[C@H](N)C(=O)O)c3)C2)cn1 [Example 46, (2S)-2-Amino-3-[3-({3-(4-fluorophenyl)-3-[(6-methylpyridin-3-yl)oxy]azetidin-1-yl}sulfonyl)phenyl]propanoic acid dihydrochloride] |
| 34 | N[C@@H](Cc1cccc(S(=O)(=O)N2CC(Oc3ccc(F)cc3)(c3ccc(F)cn3)C2)c1)C(=O)O [Example 47, (2S)-2-Amino-3-(3-{[3-(4-fluorophenoxy)-3-(5-fluoropyridin-2-yl)azetidin-1-yl]sulfonyl}phenyl)propanoic acid dihydrochloride] |
| 22 | CCc1ccc(OC2(c3ccc(F)cc3)CN(S(=O)(=O)c3cccc(C[C@H](N)C(=O)O)c3)C2)cn1 [Example 48, (2S)-2-Amino-3-[3-({3-[(6-ethylpyridin-3-yl)oxy]-3-(4-fluorophenyl)azetidin-1-yl}-sulfonyl)phenyl]propanoic acid dihydrochloride] |
| 36 | Cc1ncc(OC2(c3ccc(F)cc3)CN(S(=O)(=O)c3cccc(C[C@H](N)C(=O)O)c3)C2)cc1F [Example 49, (2S)-2-Amino-3-[3-({3-[(5-fluoro-6-methylpyridin-3-yl)oxy]-3-(4-fluorophenyl)azetidin-1-yl}sulfonyl)phenyl]propanoic acid dihydrochloride] |
| 24 | Cc1ccc(OC2(c3ccc(F)cn3)CN(S(=O)(=O)c3cccc(C[C@H](N)C(=O)O)c3)C2)cc1 [Example 50, (2S)-2-Amino-3-(3-{[3-(5-fluoropyridin-2-yl)-3-(4-methylphenoxy)azetidin-1-yl]sulfonyl}phenyl)propanoic acid dihydrochloride] |
| 6.6 | N[C@@H](Cc1cccc(S(=O)(=O)N2CC(Oc3ccc(B(O)O)cc3)(c3ccccc3)C2)c1)C(=O)O [Example 52, (2S)-2-Amino-3-(3-{[3-(4-boronophenoxy)-3-phenylazetidin-1-yl]sulfonyl}phenyl)propanoic acid monoformate] |
| 8.7 | N[C@@H](Cc1cccc(S(=O)(=O)N2CC(Oc3ccc(Cl)cc3)(c3ccc(Cl)cc3)C2)c1)C(=O)O [Example 53, (2S)-2-Amino-3-(3-{[3-(4-chlorophenoxy)-3-(4-chlorophenyl)azetidin-1-yl]sulfonyl}phenyl)propanoic acid monoformate] |
| 4.8 | N[C@@H](Cc1cccc(S(=O)(=O)N2CC(Oc3ccc(F)cc3)(c3ccc(Cl)cc3)C2)c1)C(=O)O [Example 54, (2S)-2-Amino-3-(3-{[3-(4-chlorophenyl)-3-(4-fluorophenoxy)azetidin-1-yl]sulfonyl}phenyl)propanoic acid monoformate] |
| 7.8 | N[C@@H](Cc1cccc(S(=O)(=O)N2CC(Oc3cccc(F)c3)(c3ccc(Cl)cc3)C2)c1)C(=O)O [Example 55, (2S)-2-Amino-3-(3-{[3-(4-chlorophenyl)-3-(3-fluorophenoxy)azetidin-1-yl]sulfonyl}phenyl)propanoic acid monoformate] |
| 240 | CCn1cc(OC2(c3ccc(F)cc3)CN(S(=O)(=O)c3cccc(C[C@H](N)C(=O)O)c3)C2)cn1 [Example 56, (2S)-2-Amino-3-[3-({3-[(1-ethyl-1H-pyrazol-4-yl)oxy]-3-(4-fluorophenyl)azetidin-1-yl)sulfonyl)phenyl]propanoic acid dihydrochloride] |
| 16 | COc1ccc(OC2(c3ccc(F)cc3)CN(S(=O)(=O)c3cccc(C[C@H](N)C(=O)O)c3)C2)cn1 [Example 57, (2S)-2-Amino-3-[3-({3-(4-fluorophenyl)-3-[(6-methoxypyridin-3-yl)oxy]azetidin-1-yl}sulfonyl)phenyl]propanoic acid monoformate] |
| 16 | N[C@@H](Cc1cccc(S(=O)(=O)N2CC(Oc3ccc4c(c3)COB4O)(c3ccc(F)cc3)C2)c1)C(=O)O [Example 58, (2S)-2-Amino-3-[3-({3-(4-fluorophenyl)-3-[(1-hydroxy-1,3-dihydro-2,1-benzoxaborol-5-yl)oxy]azetidin-1-yl)sulfonyl)phenyl]propanoic acid monoformate] |
| 18 | Cc1ccc(C2(Oc3cccc(F)c3)CN(S(=O)(=O)c3cccc(C[C@H](N)C(=O)O)c3)C2)cc1 [Example 59, (2S)-2-Amino-3-(3-{[3-(3-fluorophenoxy)-3-(4-methylphenyl)azetidin-1-yl]sulfonyl}phenyl)propanoic acid monoformate] |
| 14 | CC(=O)c1ccc(OC2(c3ccc(F)cn3)CN(S(=O)(=O)c3cccc(C[C@H](N)C(=O)O)c3)C2)cc1 [Example 60, (2S)-3-(3-{[3-(4-acetylphenoxy)-3-(5-fluoropyridin-2-yl)azetidin-1-yl]sulfonyl}phenyl)-2-aminopropanoic acid dihydrochloride] |
| 9.9 | NC(=O)c1ccc(OC2(c3ccc(Cl)cc3)CN(S(=O)(=O)c3cccc(C[C@H](N)C(=O)O)c3)C2)cc1 [Example 61, (2S)-2-Amino-3-(3-{[3-(4-carbamoylphenoxy)-3-(4-chlorophenyl)azetidin-1-yl]sulfonyl}phenyl)propanoic acid monohydrochloride] |
| 23 | NC(=O)c1ccc(OC2(c3ccc(F)cc3)CN(S(=O)(=O)c3cccc(C[C@H](N)C(=O)O)c3)C2)cn1 [Example 86a, dihydrochloride] |
| 17 | N#Cc1ccc(OC2(c3ccc(F)cc3)CN(S(=O)(=O)c3cccc(C[C@H](N)C(=O)O)c3)C2)cn1 [Example 86b, monoformate] |
| 19 | N[C@@H](Cc1cccc(S(=O)(=O)N2CC(Oc3ccc(Cl)cc3)(c3ccccc3)C2)c1)C(=O)O [Example 87] |
